Laboratory results as given in ChEMBL document CHEMBL1130707, “Inhibition stereochemistry of hydroxamate inhibitors for thermolysin” (Bioorg Med Chem Lett, 1998).

biological target: T1, Thermolysin (Bacillus thermoproteolyticus, UniProt P00800); test: Inhibitory activity against thermolysin
T1 sequence (P00800 whole entry): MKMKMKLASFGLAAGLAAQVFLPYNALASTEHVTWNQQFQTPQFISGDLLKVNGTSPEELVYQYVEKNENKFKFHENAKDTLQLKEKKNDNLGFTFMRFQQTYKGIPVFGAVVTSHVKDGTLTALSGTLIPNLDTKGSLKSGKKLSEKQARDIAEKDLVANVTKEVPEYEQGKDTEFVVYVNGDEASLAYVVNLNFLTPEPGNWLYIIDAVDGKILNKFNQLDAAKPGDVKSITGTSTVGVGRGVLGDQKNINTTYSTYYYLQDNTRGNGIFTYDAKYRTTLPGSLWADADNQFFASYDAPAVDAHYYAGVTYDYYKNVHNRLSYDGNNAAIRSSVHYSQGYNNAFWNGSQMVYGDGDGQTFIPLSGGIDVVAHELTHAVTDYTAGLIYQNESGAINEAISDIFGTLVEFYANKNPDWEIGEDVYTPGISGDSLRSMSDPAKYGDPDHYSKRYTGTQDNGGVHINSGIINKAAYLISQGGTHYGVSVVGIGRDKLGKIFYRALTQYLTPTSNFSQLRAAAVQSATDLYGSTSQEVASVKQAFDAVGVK

Ki [µM]	SMILES
3950	CNC(=O)[C@@H](Cc1ccccc1)CN(O)C(C)=O
1.66	CNC(=O)[C@@H](Cc1ccccc1)CN(O)C=O
22.5	COC(=O)[C@@H](CC(C)C)CN(O)C=O
7500	CCC(=O)N(O)C[C@H](Cc1ccccc1)C(=O)NC
68.2	CNC(=O)[C@H](Cc1ccccc1)CN(O)C=O
44	COC(=O)[C@@H](CC(C)C)N(O)C=O

biological target: T1, Thermolysin; test: Inhibitory activity against thermolysin; No inhibitory activity was observed up to concentration of 20 mM

Ki	SMILES
No inhibition	CCC(=O)N(O)C[C@@H](Cc1ccccc1)C(=O)NC
No inhibition	CNC(=O)[C@H](Cc1ccccc1)CN(O)C(C)=O
